Results as given in patent publication US6274715A, “Tricyclic erythromycin derivatives” (priority 1997, dated 2001).
In brackets after ≈: the same amount, converted by molar mass.

Experiments:
Type in all cases: cell-based
[1] = test system: PSEUDOMONAS AERUGINOSA DPHD-2862; experiment: In vitro antibacterial activity, MIC, BHI agar dilution; conditions: P. aeruginosa DPHD-2862, unit assumed
[2] = test system: STREPTOCOCCUS BOVIS A-5169; experiment: as above; conditions: S. bovis A-5169, unit assumed
[3] = test system: STAPHYLOCOCCUS AUREUS CMX 642A; experiment: as above; conditions: S. aureus CMX 642A, unit assumed
ESCHERICHIA COLI DC-2 = experiment: as above; conditions: E. coli DC-2, unit assumed
CANDIDA ALBICANS CCH 442 = experiment: as above; conditions: C. albicans CCH 442, unit assumed
[4] = test system: STAPHYLOCOCCUS AUREUS NCTC10649M; experiment: as above; conditions: S. aureus NCTC10649M, unit assumed
[5] = test system: STAPHYLOCOCCUS AUREUS 1775; experiment: as above; conditions: S. aureus 1775, unit assumed
[6] = test system: STAPHYLOCOCCUS AUREUS ATCC 6538P; experiment: as above; conditions: S. aureus ATCC 6538P, 35-37° C., 20 to 24 hours, unit assumed
[7] = test system: KLEBSIELLA PNEUMONIAE ATCC 8045; experiment: as above; conditions: K. pneumoniae ATCC 8045, unit assumed
[8] = test system: STREPTOCOCCUS PYOGENES EES61; experiment: as above; conditions: S. pyogenes EES61, unit assumed
[9] = test system: PROVIDENCIA STUARTII CMX 640; conditions: P. stuartii CMX 640; BHI agar; unit assumed
[10] = test system: PSEUDOMONAS AERUGINOSA BMH10; experiment: In vitro antibacterial activity, MIC, BHI agar dilution; conditions: P. aeruginosa BMH10, unit assumed
ESCHERICHIA COLI SS = experiment: as above; conditions: E. coli SS, unit assumed
EN[…] ATCC 8043 = experiment: as above; conditions: E. faecium ATCC 8043, unit assumed
Procedure, shortened: (§1)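 BHI agar dilution, 12 plates; inoculum 1:100 (1:10 slow-growing strains), Steers replicator; 35-37° C, 20-24 h. MIC = lowest conc. with no growth/slight haze/sparse colonies vs growth control, visual read. Erythromycin A reference plate.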

STR[…] 508 = experiment: as above; conditions: S. agalactiae CMX 508, unit assumed
Procedure, shortened: as §1

M[…] ATCC 9341 = experiment: as above; conditions: M. luteus ATCC 9341, unit assumed
Procedure, shortened: as §1

M[…] ATCC 4698 = experiment: as above; conditions: M. luteus ATCC 4698, unit assumed
Procedure, shortened: as §1

ESCHERICHIA COLI H560 = experiment: as above; conditions: E. coli H560, unit assumed
[11] = test system: STAPHYLOCOCCUS AUREUS CMX 553; experiment: as above; conditions: S. aureus CMX 553, unit assumed
[12] = test system: PSEUDOMONAS AERUGINOSA K799/WT; experiment: as above; conditions: P. aeruginosa K799/WT, unit assumed
[13] = test system: STAPHYLOCOCCUS AUREUS A5177; experiment: as above; conditions: S. aureus A5177, unit assumed
[14] = test system: STAPHYLOCOCCUS EPIDERMIDIS 3519; conditions: S. epidermidis 3519; BHI agar; unit assumed
[15] = test system: STREPTOCOCCUS PYOGENES PIU 2548; experiment: In vitro antibacterial activity, MIC, BHI agar dilution; conditions: S. pyogenes PIU 2548, unit assumed
PSEUDOMONAS CEPACIA 296I = experiment: as above; conditions: P. cepacia 296I, unit assumed
[16] = test system: MYCOBACTERIUM SMEGMATIS ATCC 114; experiment: as above; conditions: M. smegmatis ATCC 114, unit assumed
ESCHERICHIA COLI JUHL = conditions: E. coli JUHL; BHI agar; unit assumed
[17] = test system: PSEUDOMONAS AERUGINOSA K799/61; experiment: In vitro antibacterial activity, MIC, BHI agar dilution; conditions: P. aeruginosa K799/61, unit assumed
[18] = test system: ENTEROBACTER AEROGENES ATCC 13048; experiment: as above; conditions: E. aerogenes ATCC 13048, unit assumed
[19] = test system: STAPHYLOCOCCUS AUREUS A-5278; experiment: as above; conditions: S. aureus A-5278, unit assumed
[20] = test system: PSEUDOMONAS AERUGINOSA 5007; experiment: as above; conditions: P. aeruginosa 5007, unit assumed
ESCHERICHIA COLI KNK 437 = conditions: E. coli KNK 437; BHI agar; unit assumed
[21] = test system: PSEUDOMONAS AERUGINOSA DPHD-5263; experiment: In vitro antibacterial activity, MIC, BHI agar dilution; conditions: P. aeruginosa DPHD-5263, unit assumed
[22] = test system: STREPTOCOCCUS PYOGENES 930; experiment: as above; conditions: S. pyogenes 930, unit assumed

Question: Which results are given for CC[C@H]1OC(=O)[C@H](C)C(=O)[C@H](C)[C@@H](O[C@@H]2O[C@H](C)C[C@H](N(C)C)[C@H]2O)[C@](C)(OC)C[C@@H](C)C2=NC[C@H](Cc3ccc(I)cc3)N3C(=O)O[C@@]1(C)[C@H]3[C@H]2C [Example 70]?
Answer: MIC [1]: 100 µg/mL (≈ 117 µM); MIC [2]: 0.01 µg/mL (≈ 0.0117 µM); MIC [3]: 0.2 µg/mL (≈ 0.234 µM); MIC (ESCHERICHIA COLI DC-2): 50 µg/mL (≈ 58.6 µM); MIC (CANDIDA ALBICANS CCH 442): 100 µg/mL (≈ 117 µM); MIC [4]: 0.2 µg/mL (≈ 0.234 µM); MIC [5]: 100 µg/mL (≈ 117 µM); MIC [6]: 0.1 µg/mL (≈ 0.117 µM); MIC [7]: 100 µg/mL (≈ 117 µM); MIC [8]: 0.02 µg/mL (≈ 0.0234 µM); MIC [9]: > 100 µg/mL; MIC [10]: 100 µg/mL (≈ 117 µM); MIC (ESCHERICHIA COLI SS): 1.56 µg/mL (≈ 1.83 µM); MIC (EN[…] ATCC 8043): 0.1 µg/mL (≈ 0.117 µM); MIC (STR[…] 508): 0.05 µg/mL (≈ 0.0586 µM); MIC (M[…] ATCC 9341): 0.1 µg/mL (≈ 0.117 µM); MIC (M[…] ATCC 4698): 0.2 µg/mL (≈ 0.234 µM); MIC (ESCHERICHIA COLI H560): 50 µg/mL (≈ 58.6 µM); MIC [11]: 0.2 µg/mL (≈ 0.234 µM); MIC [12]: > 100 µg/mL; MIC [13]: 0.1 µg/mL (≈ 0.117 µM); MIC [14]: 0.2 µg/mL (≈ 0.234 µM); MIC [15]: 0.39 µg/mL (≈ 0.457 µM); MIC (PSEUDOMONAS CEPACIA 296I): 50 µg/mL (≈ 58.6 µM); MIC [16]: 0.2 µg/mL (≈ 0.234 µM); MIC (ESCHERICHIA COLI JUHL): 100 µg/mL (≈ 117 µM); MIC [17]: 0.78 µg/mL (≈ 0.914 µM); MIC [18]: 100 µg/mL (≈ 117 µM); MIC [19]: 100 µg/mL (≈ 117 µM); MIC [20]: 100 µg/mL (≈ 117 µM); MIC (ESCHERICHIA COLI KNK 437): > 100 µg/mL; MIC [21]: 100 µg/mL (≈ 117 µM); MIC [22]: 50 µg/mL (≈ 58.6 µM)

Question: What does the source list for CCC1OC(=O)C(C)C(=O)C(C)C(OC2OC(C)CC(N(C)C)C2O)C(C)(OC)CC(C)C2=NCC(COCc3ccccc3F)N3C(=O)OC1(C)C3C2C (stereo not drawn) [Example 73]?
Answer: MIC [1]: 100 µg/mL (≈ 129 µM); MIC [2]: 0.01 µg/mL (≈ 0.0129 µM); MIC [3]: 0.1 µg/mL (≈ 0.129 µM); MIC (ESCHERICHIA COLI DC-2): 25 µg/mL (≈ 32.2 µM); MIC (CANDIDA ALBICANS CCH 442): > 100 µg/mL; MIC [4]: 0.1 µg/mL (≈ 0.129 µM); MIC [5]: > 100 µg/mL; MIC [6]: 0.1 µg/mL (≈ 0.129 µM); MIC [7]: 100 µg/mL (≈ 129 µM); MIC [8]: ≤ 0.005 µg/mL; MIC [9]: > 100 µg/mL; MIC [10]: 100 µg/mL (≈ 129 µM); MIC (ESCHERICHIA COLI SS): 0.2 µg/mL (≈ 0.258 µM); MIC (EN[…] ATCC 8043): 0.05 µg/mL (≈ 0.0644 µM); MIC (STR[…] 508): ≤ 0.005 µg/mL; MIC (M[…] ATCC 9341): 0.01 µg/mL (≈ 0.0129 µM); MIC (M[…] ATCC 4698): 0.1 µg/mL (≈ 0.129 µM); MIC (ESCHERICHIA COLI H560): 12.5 µg/mL (≈ 16.1 µM); MIC [11]: 0.1 µg/mL (≈ 0.129 µM); MIC [12]: > 100 µg/mL; MIC [13]: 0.1 µg/mL (≈ 0.129 µM); MIC [14]: 0.1 µg/mL (≈ 0.129 µM); MIC [15]: 0.39 µg/mL (≈ 0.503 µM); MIC (PSEUDOMONAS CEPACIA 296I): 25 µg/mL (≈ 32.2 µM); MIC [16]: 0.39 µg/mL (≈ 0.503 µM); MIC (ESCHERICHIA COLI JUHL): 50 µg/mL (≈ 64.4 µM); MIC [17]: 0.39 µg/mL (≈ 0.503 µM); MIC [18]: 100 µg/mL (≈ 129 µM); MIC [19]: > 100 µg/mL; MIC [20]: > 100 µg/mL; MIC (ESCHERICHIA COLI KNK 437): 50 µg/mL (≈ 64.4 µM); MIC [21]: 100 µg/mL (≈ 129 µM); MIC [22]: 100 µg/mL (≈ 129 µM)

Question: Which results are given for CCC1OC(=O)C(C)C(=O)C(C)C(OC2OC(C)CC(N(C)C)C2O)C(C)(OC)CC(C)C2=NC(COCc3ccc(N(C)C)cc3)CN3C(=O)OC1(C)C3C2C (stereo not drawn) [Example 76]?
Answer: MIC [1]: > 100 µg/mL; MIC [2]: 0.01 µg/mL (≈ 0.0125 µM); MIC [3]: 0.39 µg/mL (≈ 0.487 µM); MIC (ESCHERICHIA COLI DC-2): > 100 µg/mL; MIC (CANDIDA ALBICANS CCH 442): > 100 µg/mL; MIC [4]: 0.2 µg/mL (≈ 0.25 µM); MIC [5]: > 100 µg/mL; MIC [6]: 0.39 µg/mL (≈ 0.487 µM); MIC [7]: > 100 µg/mL; MIC [8]: 0.1 µg/mL (≈ 0.125 µM); MIC [9]: > 100 µg/mL; MIC [10]: > 100 µg/mL; MIC (ESCHERICHIA COLI SS): 0.39 µg/mL (≈ 0.487 µM); MIC (EN[…] ATCC 8043): 0.1 µg/mL (≈ 0.125 µM); MIC (STR[…] 508): 0.1 µg/mL (≈ 0.125 µM); MIC (M[…] ATCC 9341): 0.2 µg/mL (≈ 0.25 µM); MIC (M[…] ATCC 4698): 0.39 µg/mL (≈ 0.487 µM); MIC (ESCHERICHIA COLI H560): 50 µg/mL (≈ 62.4 µM); MIC [11]: 0.39 µg/mL (≈ 0.487 µM); MIC [12]: > 100 µg/mL; MIC [13]: 0.39 µg/mL (≈ 0.487 µM); MIC [14]: 0.39 µg/mL (≈ 0.487 µM); MIC [15]: 0.39 µg/mL (≈ 0.487 µM); MIC (PSEUDOMONAS CEPACIA 296I): > 100 µg/mL; MIC [16]: 6.2 µg/mL (≈ 7.74 µM); MIC (ESCHERICHIA COLI JUHL): > 100 µg/mL; MIC [17]: 1.56 µg/mL (≈ 1.95 µM); MIC [18]: > 100 µg/mL; MIC [19]: > 100 µg/mL; MIC [20]: > 100 µg/mL; MIC (ESCHERICHIA COLI KNK 437): > 100 µg/mL; MIC [21]: > 100 µg/mL; MIC [22]: > 100 µg/mL
